Experiment [1] in a line: Antiproliferative activity against human HCT116 cells assessed as cell growth at 1 uM after 3 days by thymidine incorporation assay relative to control. Conditions: HCT-116, 72 h, read-out: Activity. The class given is functional.
The nature of experiment [2]: Antiproliferative activity against human MDA-MB-468 cells assessed as cell growth at 1 uM after 3 days by thymidine incorporation assay relative to control. The experiment is classed as functional. Conditions: MDA-MB-468, 72 h, read-out: Activity. For orientation: Incorporation of labelled thymidine or its analogues reports DNA synthesis.
Experiment [3] can be described thus: Antiproliferative activity against human MDA-MB-231 cells assessed as cell growth at 1 uM after 3 days by thymidine incorporation assay relative to control. Conditions: MDA-MB-231, 72 h, read-out: Activity. The class given is functional.
Experiment [4] in a line: Growth inhibition of human HCT116 cells at 10 uM after 48 hrs by SRB assay relative to control. The experiment is classed as functional. Conditions: HCT-116, 48 h, values are per cent of control. Background: The SRB assay estimates cell density from bound dye.
Experiment [5] is described as follows: Growth inhibition of human MDA-MB-468 cells at 10 uM after 48 hrs by SRB assay relative to control. The class given is functional. Conditions: MDA-MB-468, 48 h, values are per cent of control.
The nature of experiment [6]: Growth inhibition of human MDA-MB-231 cells at 10 uM after 48 hrs by SRB assay relative to control. The class given is functional. Conditions: MDA-MB-231, 48 h, read-out: GI.
Experiment [7] is described as follows: Antiproliferative activity against human HCT116 cells after 3 days by thymidine incorporation assay. The class given is functional, cell-based. Conditions: HCT-116, 72 h.
Experiment [8] can be described thus: Antiproliferative activity against human MDA-MB-468 cells after 3 days by thymidine incorporation assay. The class given is functional, cell-based. Conditions: MDA-MB-468, 72 h.
The nature of experiment [9]: Antiproliferative activity against human MDA-MB-231 cells after 3 days by thymidine incorporation assay. The experiment is classed as functional, cell-based. Conditions: MDA-MB-231, 72 h.
Experiment [10] in a line: Antiproliferative activity against human K562 cells after 3 days by thymidine incorporation assay. The experiment is classed as functional, cell-based. Conditions: K562, 72 h.

These results are taken from ChEMBL document CHEMBL3872275, “Synthesis and antiproliferative activity of 2-chlorophenyl carboxamide thienopyridines” (Bioorg Med Chem Lett, 2017).

SMILES strings stand for the structures.

As for `Cc1nc2sc(C(=O)Nc3ccccc3Cl)c(N)c2cc1C(C)O` (stereo not drawn), the growth at 1 µM was determined as 97% in experiment [1], 96% in experiment [2] and 108% in [3].

As to `Nc1c(C(=O)Nc2ccccc2Cl)sc2nc3c(cc12)CCCCCC3`, the results for the growth at 1 µM in experiment [1], in [2] and in experiment [3] were 71%, 100% and 56%, respectively.

For `CC(=O)c1cc2c(N)c(C(=O)Nc3ccccc3Cl)sc2nc1C`, the growth at 1 µM in experiment [1] came to 87%; in experiment [2] it was 104%; in experiment [3], 100%.

With `O=C1CCCc2nc3sc4c(=O)n(-c5ccccc5Cl)nnc4c3cc21`, the growth, % of control at 10 µM in experiment [4] came out at 96%; in experiment [5], 86%. In addition, the inhibition of growth at 10 µM in experiment [6] is 94%. Besides, the growth at 1 µM in [1] was determined as 97%; in experiment [2] it was 91%; in experiment [3], 97%.

Take `O=c1c2sc3nc4c(cc3c2nnn1-c1ccccc1Cl)C(O)CCC4` (stereo not drawn): the growth, % of control at 10 µM in experiment [4] amounted to 102%; in experiment [5], 91%. Further, the inhibition of growth at 10 µM in [6] was found to be 86%. Moreover, the growth at 1 µM in experiment [1] was 96%; in experiment [2], 80%; in experiment [3] it was 91%.

As to `CC(=O)c1cc2c(nc1C)sc1c(=O)n(-c3ccccc3Cl)nnc12`, the growth at 1 µM in experiment [1] came out at 98%; in [2] it was 96%; in experiment [3], 103%.

Turning to `CC(=O)OC1CCCc2nc3sc(C(=O)Nc4ccccc4Cl)c(N)c3cc21` (stereo not drawn), the values for the growth at 1 µM in experiment [1], in [2] and in [3] were 3%, 7% and 10%, respectively. Besides, the IC50 (usually the midpoint of a concentration-inhibition curve) in experiment [7] is 184 nM; in experiment [8], 181 nM; in experiment [9], 201 nM; in experiment [10], 192 nM.

With `O=c1c2sc3nc4c(cc3c2nnn1-c1ccccc1Cl)CCCCC4`, the growth at 1 µM in experiment [1] was determined as 99%; in experiment [2], 90%; in [3] it was 105%.

As for `Nc1c(C(=O)Nc2ccccc2Cl)sc2nc3c(cc12)CCCCCCCC3`, the growth at 1 µM in [1] was found to be 91%; in experiment [2], 78%; in [3], 104%.

In the case of `Cc1nc2sc3c(=O)n(-c4ccccc4Cl)nnc3c2cc1C(C)O` (stereo not drawn), the figures for the growth at 1 µM in experiment [1], in experiment [2] and in experiment [3] were 100%, 118% and 100%, respectively.

In the case of `Nc1c(C(=O)Nc2ccccc2Cl)sc2nc3c(cc12)CCCCC3`, the results for the growth at 1 µM in [1], in experiment [2] and in [3] were 94%, 81% and 101%, respectively.

Consider `Nc1c(C(=O)Nc2ccccc2Cl)sc2nc3c(cc12)C(O)CCC3` (stereo not drawn), for which the growth, % of control at 10 µM in experiment [4] was found to be 30%; in [5] it was 26%. Also, in [6], the inhibition of growth at 10 µM turned out to be 58%. For the same molecule, the growth at 1 µM was 11% in [1], 14% in [2] and 30% in [3]. Further, the concentration for half-maximal inhibition (IC50) in experiment [7] was found to be 616 nM; in experiment [8], 546 nM; in experiment [9], 675 nM; in [10], 431 nM.

`O=c1c2sc3nc4c(cc3c2nnn1-c1ccccc1Cl)CCCCCC4`: the figures for the growth at 1 µM in experiment [1], in [2] and in experiment [3] were 90%, 85% and 92%, respectively.

As to `Nc1c(C(=O)Nc2ccccc2Cl)sc2nc3c(cc12)CCCC3`, the figures for the growth, % of control at 10 µM in [4] and in [5] were 107% and 91%, respectively. Moreover, the inhibition of growth at 10 µM in [6] amounted to 100%. In addition, the growth at 1 µM in experiment [1] came to 94%; in experiment [2] it was 95%; in experiment [3] it was 119%.

For the molecule `O=c1c2sc3nc4c(cc3c2nnn1-c1ccccc1Cl)CCCCCCCC4`, the figures for the growth at 1 µM in experiment [1], in experiment [2] and in experiment [3] were 97%, 82% and 91%, respectively.

In the case of `CC(=O)OC1CCCc2nc3sc4c(=O)n(-c5ccccc5Cl)c(C)nc4c3cc21` (stereo not drawn), the growth at 1 µM in [1] worked out at 92%; in experiment [2] it was 64%; in experiment [3] it was 82%.

In the case of `CC(=O)OC1CCCc2nc3sc4c(=O)n(-c5ccccc5Cl)nnc4c3cc21` (stereo not drawn), the values for the growth at 1 µM in experiment [1], in [2] and in experiment [3] were 98%, 93% and 95%, respectively.

For the molecule `Nc1c(C(=O)Nc2ccccc2Cl)sc2nc3c(cc12)C(=O)CCC3`, the growth, % of control at 10 µM in experiment [4] was 76%; in experiment [5], 25%. For the same molecule, in [6], the inhibition of growth at 10 µM was determined as 70%. Further, the growth at 1 µM in experiment [1] was determined as 99%; in experiment [2] it was 94%; in experiment [3], 104%.

In the case of `O=c1c2sc3nc4c(cc3c2nnn1-c1ccccc1Cl)CCCC4`, the growth, % of control at 10 µM in experiment [4] and in experiment [5] was 88% in each case. For the same molecule, the inhibition of growth at 10 µM in experiment [6] came to 81%. The growth at 1 µM in [1] was 99%; in experiment [2], 81%; in experiment [3], 94%.
